# Entries after “also recorded” stand apart in the source; their conditions may differ.
# Legend:
# UMR-106 cells [1] = experiment: MTT cell viability assay in UMR 106-01 cultures; assay type: cell-based, Rat
# Procedure: Cell Culture. UMR 106-01 cells were maintained and cultured at 37° C. and 5% carbon dioxide. Cells were seeded at a density of 1.0×10^5 cells/cm^2 in Growth Medium (Eagle's MEM supplemented with Earle's salts, 1% non-essential amino acids, 10 mM, HEPES, pH 7.2, and 10% fetal bovine serum). After 24 hours (h), the medium was exchanged with Growth Medium containing 0.5% BSA. Sixty-four hours after plating, the culture medium was exchanged with Mineralization Media (Growth Medium containing either 0.1% BSA or 10% fetal bovine serum and 7 mM β-glycerol phosphate). Cultures were then incubated for an additional 24 hours, at the end of which (88 h), the cells were fixed in 70% ethanol and either subjected to MTT assay or extracted for protein. […] Alternatively, AEBSF was added at 44 h after plating; inhibitor was then removed and exchanged for Mineralization Media at 64 h and the amount of mineralization analyzed at 88 h.
# MTT Assays Culture wells were washed with Eagle's MEM supplemented with Earle's salts and then incubated with a solution of 0.5 mg/ml MTT (3-(4,5-dimethylthiazol-2-yl)-2,5-diphenyl-2Htetrazolium bromide) in Eagle's MEM for 1-2 h at 37° C. Excess MTT solution was removed, the cells disrupted by mixing briefly with dimethylsulfoxide, and free, reduced dye was read at 490 or 540 nm in a spectrophotometer. […]
# BAG-75 and BSP = experiment: Uptake and proteolytic cleavage of BAG-75 and BSP in mineralizing UMR cultures (SDS-PAGE, staining, immunoblotting); assay type: cell-based, Rat
# Procedure: Two Step Extraction of Cell Layer—2-Step Method. During the final 24 hour mineralization period, cells were grown in BSA-free, serum-free media conditions to reduce the amount of BSA in fractions used for 2-dimensional gel electrophoresis. Media was removed from each flask, heated at 95° C. for 5 minutes, dialyzed against 5% acetic acid, and lyophilized to dryness. Cell layers were first extracted without mixing for 2 h at 4° C. in 0.05 M Tris-acetate buffer (pH 7.5) containing 0.15 M NaCl, 0.05 M EDTA and 0.02% sodium azide; extracts were then inactivated at 95° C. for 5 minutes, dialyzed against 5% HAc, and lyophilized to dryness. The residual cell layer was next dislodged by scrapping and then extracted overnight at 4° C. by slow mixing with 0.1 M Trisacetate buffer (pH 7.5) containing 8 M urea, 2% (w/v) CHAPS and 0.02% sodium azide. Urea extracts were then homogenized and clarified by ultracentrifugation at 30,000 rpm for 1 h at 4° C. in an SW 50.1 rotor prior to use in 2-dimensional gel electrophoresis.
# Western Blotting—Chemiluminescence Detection. […]
# The effect of AEBSF on the protein distribution within mineralizing cultures was analyzed using cells grown until 64 hours, at which time they were fed with one of four different media conditions. […]
# [2] = test system: procollagen C proteinase enhancer protein, 1,25-D3-MARRS, nascent polypeptide associated complex alpha chain; experiment: 2-D SDS-PAGE and mass spectrometry of cell layer EDTA extracts, fragmentation of mineralization related proteins; assay type: cell-based, Rat; conditions: +BGP versus +BGP with 0.04 mM AEBSF, serum-depleted
# Procedure: Two Step Extraction of Cell Layer—2-Step Method. During the final 24 hour mineralization period, cells were grown in BSA-free, serum-free media conditions to reduce the amount of BSA in fractions used for 2-dimensional gel electrophoresis. Media was removed from each flask, heated at 95° C. for 5 minutes, dialyzed against 5% acetic acid, and lyophilized to dryness. Cell layers were first extracted without mixing for 2 h at 4° C. in 0.05 M Tris-acetate buffer (pH 7.5) containing 0.15 M NaCl, 0.05 M EDTA and 0.02% sodium azide; extracts were then inactivated at 95° C. for 5 minutes, dialyzed against 5% HAc, and lyophilized to dryness. […]
# Mass Spectrometric Analyses. Protein bands were detected by staining with Coomassie blue G or with Sypro Ruby dye according to the manufacturer's instructions (Bio-Rad, Inc.). […] The data were analyzed using Mascot (Matrix Science, LTD), to find protein matches in the MSDB—20050227.fasta database. […]
# AEBSF is a general serine protease inhibitor and the inhibition of mineralization by AEBSF could very well be due to the blockage of cleavage events of other necessary proteins. […] There were no major differences detected between the two growth conditions for either the urea extract or the media fraction. However, the differences detected between the two EDTA extracts were visually dramatic (FIG. 9). […]
# UMR-106 cells [3] = experiment: Mineral deposition (hydroxyapatite) within BMF in UMR 106-01 cultures, Alizarin red S quantitation; assay type: cell-based, Rat
# Procedure: Cell Culture. UMR 106-01 cells were maintained and cultured at 37° C. and 5% carbon dioxide. Cells were seeded at a density of 1.0×10^5 cells/cm^2 in Growth Medium (Eagle's MEM supplemented with Earle's salts, 1% non-essential amino acids, 10 mM, HEPES, pH 7.2, and 10% fetal bovine serum). After 24 hours (h), the medium was exchanged with Growth Medium containing 0.5% BSA. Sixty-four hours after plating, the culture medium was exchanged with Mineralization Media (Growth Medium containing either 0.1% BSA or 10% fetal bovine serum and 7 mM β-glycerol phosphate). Cultures were then incubated for an additional 24 hours, at the end of which (88 h), the cells were fixed in 70% ethanol and either subjected to MTT assay or extracted for protein. In some experiments, protease inhibitors, including serine protease inhibitor AEBSF (4-(2-aminoethyl)-benzenesulfonylfluoride HCl), were added to cultures at 64 h after plating in Mineralization Media. Alternatively, AEBSF was added at 44 h after plating; inhibitor was then removed and exchanged for Mineralization Media at 64 h and the amount of mineralization analyzed at 88 h.
# Quantitation of Mineralization. […] Bound dye was quantitated by extraction for 2 h at 4° C. in cold 10 mM HCl in 70% ethanol. The initial extract was collected and combined with a second extract and then read at 520 nm in a spectrophotometer. A standard curve for Alizarin red S dye was constructed for each analysis and the amount of bound dye/culture well was determined. […] Combined extracts were read at 520 nm in a spectrophotometer and the amount of bound dye/culture well was determined based on a standard curve.
# To investigate the nature of the protease activity responsible for BAG-75/BSP cleavage and the relationship of cleavage with mineralization, a variety of protease inhibitors (Table 1) were tested in the UMR model. Individual inhibitors were added to confluent cultures at 64 hours after plating and the amount of hydroxyapatite deposited within BMF was quantitated 24 hours later. […]
# [4] = test system: primary mouse calvarial cultures; experiment: MTT assay in primary mouse calvarial cultures; assay type: cell-based; conditions: 0.01 to 0.1 mM, scored on day 12
# Procedure: Primary mouse calvaria were isolated from 3-5 day old mice and digested with trypsin/collagenase. Three sequential enzymatic digestions were pooled and spun down at 1500 rpm and the cells were resuspended in alpha-MEM containing 10% fetal bovine serum, 2 mM L-glutamine, 100 u/ml penicillin and 30 ug/ml gentamicin (Alpha-Growth Medium). Cells were plated directly at a density of 2-3×10^6 cells per T-75 cm2 flask and allowed to reach confluency (3-4 days). Confluent cultures were passaged by trypsinization and re-plating in 12- or 24-well culture dishes at a density of 20,000 cells per cm2. Cultures were subsequently re-fed at three-day intervals with Alpha-Growth Medium supplemented with 50 ug/ml ascorbic acid and 5 mM beta-glycerol phosphate. Beta-glycerol phosphate was omitted from some wells, which served as an unmineralized control. […] A second set was fixed on day 12 with 70% ethanol and processed for quantitative Alizarin red S staining as described for UMR cultures.
# MTT Assays Culture wells were washed with Eagle's MEM supplemented with Earle's salts and then incubated with a solution of 0.5 mg/ml MTT (3-(4,5-dimethylthiazol-2-yl)-2,5-diphenyl-2Htetrazolium bromide) in Eagle's MEM for 1-2 h at 37° C. Excess MTT solution was removed, the cells disrupted by mixing briefly with dimethylsulfoxide, and free, reduced dye was read at 490 or 540 nm in a spectrophotometer.
smiles,measurement,setting,value
"Cl.NCCc1ccc(S(=O)(=O)F)cc1 [AEBSF, 4-(2-aminoethyl)-benzenesulfonylfluoride HCl]",concentration below which no loss of cell viability was noted (MTT),"UMR-106 cells [1]; rat, UMR 106-01 cells, pH 7.2",below 1 mM
same,concentration above which toxic (MTT),UMR-106 cells [1]; serum-sufficient or serum-depleted conditions,above 0.4 mM
same,uptake of BAG-75 and BSP (75 kDa glycophosphoprotein band) from media by the cell layer,"BAG-75 and BSP; 0.1 mM AEBSF with 7 mM β-glycerol phosphate, 64-88 hours, HCl",blocked; also recorded: blocks uptake
same,proteolytic cleavage of BAG-75 and BSP to 45-50 kDa fragments,"BAG-75 and BSP; UMR cultures with β-glycerol phosphate, two stage extraction, immunoblot",blocks uptake and cleavage
same,cleavage of three additional proteins in EDTA extract,[2],inhibited the cleavage
same,concentration capable of completely blocking mineral nucleation (as low as),"UMR-106 cells [3]; UMR cultures, 64-88 h after plating",0.04 mM
same,effect on mineral nucleation / mineralization in BMF,"UMR-106 cells [3]; UMR system, added at 64 hours after plating, optimal recommended dosage",blocked mineral nucleation
same,"difference in effectiveness, mineralization period (64-88 h) versus proliferation/differentiation period (44-64 h after plating)","UMR-106 cells [3]; assuming baseline mineral level of 150-170 nmoles/well, FIG. 4A",10 fold
same,change in viable cell number (MTT),[4],little change in viable cell number
